Test results from patent US11613538B2, “Method of inhibiting or reducing a viral infection” (PTC Therapeutics, Inc., priority 2009, dated 2023).
Read-outs that look alike come from different tables or passages of the source.

Assays:
[1] = Whole-body autoradiography: brain tissue plasma concentration ratios (blood-brain barrier penetration); type: in vivo, rats; settings: in words
[2] = system: hypoxia-induced VEGF production in HeLa cells; test: cells; type: cell-based, human
HCV genotype 1b replicon = test: HCV subgenomic replicon assay, genotype 1b; type: cell-based; settings: Hepatitis C virus
HCV genotype 2a replicon = test: HCV subgenomic replicon assay, genotype 2a; type: cell-based; settings: Hepatitis C virus
PV strain Mahoney = test: microbe, parasite or virus in culture; type: cell-based, poliovirus
Vaccinia = test: microbe, parasite or virus in culture; type: cell-based; settings: Orthopoxvirus vaccinia, Vero C1008
Adenovirus = Adenovirus CPE protection assay in HeLa cells; type: cell-based
HSV-1 = HSV-1 CPE protection assay in Vero cells; type: cell-based, herpes simplex virus-1
Influenza A = test: microbe, parasite or virus in culture; type: cell-based, influenza virus
Parainfluenza = Parainfluenza CPE protection assay in Vero cells; type: cell-based, parainfluenza virus
RSV = RSV CPE protection assay in Vero cells; type: cell-based, respiratory syncytial virus
Yellow Fever = test: microbe, parasite or virus in culture; type: cell-based, yellow fever virus
Dengue 2 = Dengue 2 CPE protection assay in Vero E6 cells; type: cell-based, dengue virus
WNV = WNV CPE protection assay in Vero cells (MTS); type: cell-based, West Nile virus
Method: Antiviral activity of a Compound against WNV is tested in Vero cells by protection of virus induced cytopathic effects (i.e. cytoprotection measured as cell viability, IC50). The effect of a Compound on inhibition of virus induced cytopathic effects is determined using MTS (CellTiter) assay.

HIV-1 = HIV-1 CPE protection assay in MT-2 cells; type: cell-based
Method: Antiviral activity against HIV-1 is determined in a human cell line. […] The activity against HIV may also be tested in human peripheral blood mononuclear cells in cell culture.

MT-2 cells = test: CC50 in MT-2 cells (antiviral assay panel); type: cell-based, human; settings: HIV-1 assay line
786-O cells = test: 786-O renal cell carcinoma xenograft (VHL-negative), tumor volume; type: in vivo, mice; settings: for Tumor size (mean±SD): PO
Method: Both sunitinib and rapamycin are used clinically for treatment of renal cancer.
(§1) A total of 100 mice were injected, of which 60 were used in the study.
Groups were taken off study when the mean tumor volume in a group was 1300 mm^3 or more. Vehicle-treatment started on Day 0 and continued through Day 57. Compound #10-treatment started on Day 0 and continued through Day 88.
(§2) Tumors were measured twice per week using digital calipers.
The time to progression to reach a tumor volume 1000 mm^3 was calculated for each mouse. The median values were reported.

Caki-1 cells = test: Caki-1 renal cell carcinoma xenograft (VHL-positive), tumor volume; type: in vivo, mice; settings: for Tumor size (mean±SD): PO
Method: The Caki-1 cell line expresses the von Hippel-Lindau (VHL) protein which acts as a tumor suppressor by promoting the rapid degradation of HIF-1α (hypoxia-inducible factor 1α) under normoxia. Under hypoxic conditions, HIF-1α is stabilized and activated by the inability of VHL to act resulting in increased transcription of VEGF that is responsible for the high vascularization of RCC (see Turcotte et al, 2003, Zimmer et al, 2004).
as §1
Groups were taken off study when the mean tumor volume in a group was 1300 mm^3 or more. Vehicle-treatment started on Day 0 and continued through Day 35. Compound #10-treatment started on Day 0 and continued through Day 52.
as §2
[…] The median values were reported.

[3] = Caki-1 xenograft study: body weight and clinical observations; type: in vivo, mice; settings: Caki-1 study
Excerpt: Body Weight: The mice were weighed once per week.

[4] = system: c-Myc expression in 786-O cells; test: Western blot of protein expression in 786-O Renal Cancer Cell line (FIG. 7A); type: cell-based; settings: different dose levels (1 μM and 10 μM), in words
Excerpt: The Vinculin, c-Myc, Survivin, ornithine decarboxylase (ODC), Cyclin D and pS6 mRNA are cap-dependent mRNAs that are considered difficult to translate. The blots for each mRNA shown were translated via a cap-independent manner with mTOR inhibition (Akt has been inactivated).

[5] = system: protein expression in RCC lines 786-0, 769-P and A498; test: Western blot of protein expression in panel of RCC lines (786-0, 769-P and A498) (FIG. 8); type: cell-based; settings: monotherapy at different μM dose levels; in words
Vero cells = settings: monkey
MDCK cells = settings: dog
[6] = human respiratory syncytial virus, Vero

For `COc1ccc([C@H]2c3[nH]c4ccc(Cl)cc4c3CCN2C(=O)Oc2ccc(Cl)cc2)cc1` (racemic) [Compound #10], the Blood-brain barrier penetration [1] was “penetrates the blood-brain barrier”, the “Inhibition of stress-induced VEGF production (FIG. 1)” value [2] was “inhibit stress-induced VEGF production” and the IC50 (HCV genotype 1b replicon) was 1 nM. The IC50 (HCV genotype 1b replicon; read-out: average IC50) was 36 nM, the IC50 (HCV genotype 2a replicon) was < 3 nM and the IC50 (PV strain Mahoney; Enterovirus C, HeLa) was 0.57 nM. For the same compound, the IC90 (PV strain Mahoney; Enterovirus C, HeLa) was 2.8 nM, the IC50 (PV strain Mahoney; Enterovirus C, HeLa, read-out: average IC50) was 0.6 nM and the “decrease in activity when added at the time of infection” value (PV strain Mahoney; infected HeLa cells) was 65 fold. The IC50 (Vaccinia) was 40 nM, the IC90 (Vaccinia) was 80 nM and the Inhibition of adenovirus (Adenovirus; at the doses tested, in words) was “did not inhibit”. The IC50 (Adenovirus; unidentified adenovirus, Adenovirus, DNA, HeLa, CPE protection) was > 1000 nM, the IC90 (Adenovirus; unidentified adenovirus, Adenovirus, HeLa, CPE protection) was > 1000 nM and the IC50 (HSV-1; Human alphaherpesvirus 1, HSV-1, DNA, Vero, CPE protection) was > 1000 nM. For the same compound, the IC90 (HSV-1; Human alphaherpesvirus 1, HSV-1, Vero, CPE protection) was > 1000 nM, the “Inhibition of herpes simplex virus-1 (HSV-1)” value (HSV-1; at the doses tested, in words) was “did not inhibit” and the “Inhibition of influenza virus” value (Influenza A) was “did not exhibit any selective inhibition”. For the same compound, the IC50 (Influenza A; Influenza A virus, MDCK) was > 1000 nM, the IC90 (Influenza A; Influenza A virus, MDCK) was > 1000 nM and the IC50 (Parainfluenza; Parainfluenza, (−) RNA, Vero, CPE protection) was 29 nM. The IC90 (Parainfluenza; Parainfluenza, Vero, CPE protection) was 44 nM, the “Activity against parainfluenza virus” value (Parainfluenza; in words) was “potent activity” and the IC50 (RSV; [6]) was 250 nM. The IC90 (RSV; [6]) was ≥ 160 nM, the “Activity against respiratory syncytial virus (RSV)” value (RSV; in words) was “potent activity” and the IC50 (Yellow Fever; Yellow fever virus, HeLa) was > 1000 nM. The IC90 (Yellow Fever; Yellow fever virus, HeLa) was > 1000 nM, the “Activity against yellow fever” value (Yellow Fever; at the doses tested, in words) was “inactive” and the IC50 (Dengue 2; Dengue virus, Vero C1008, Dengue 2, (+) RNA, Vero E6, CPE protection) was > 1000 nM. The IC90 (Dengue 2; Dengue virus, Vero C1008, Dengue 2, Vero E6, CPE protection) was > 1000 nM, the Activity against dengue (Dengue 2; at the doses tested, in words) was “inactive” and the IC50 (WNV; West Nile virus, WNV, (+) RNA, Vero, CPE protection) was 67 nM. For the same compound, the IC90 (WNV; West Nile virus, WNV, Vero, CPE protection) was 280 nM, the “Activity against West Nile virus (WNV)” value (WNV; in words) was “potent activity” and the IC50 (HIV-1; Human immunodeficiency virus 1, MT2) was 22 nM. The EC50 (HIV-1; Human immunodeficiency virus 1, MT2, 72 h, human cell line, 3 days post-infection, normalized to cell number after treatment in the absence of infection, read-out: EC50, prevention of cytopathic effect) was 22 nM, the CC50 (MT-2 cells) was 4.1 nM and the “Median time for tumors to reach 1000 mm^3” value (786-O cells; Compound #10 10 mg/kg QD PO, sunitinib 75 mg/kg QD PO, rapamycin 15 mg/kg PO, time on study used if not reached) was 71 days. For the same compound, the “Tumor size (mean±SD)” value (786-O cells; Day 57, 10 mg/kg QD) was 945±408 mm^3, the “Tumors smaller than those in vehicle-treated mice” value (786-O cells; Day 57, Compound #10 10 mg/kg QD PO, sunitinib 75 mg/kg QD PO, rapamycin 15 mg/kg PO) was 34% and the “Tumor size (mean±SD)” value (786-O cells; Day 88, 10 mg/kg QD) was 1569±671 mm^3. For the same compound, the “Cure (tumor size <60 mm^3, not measurable)” value (786-O cells; Mouse 2-10, 10 mg/kg, in words) was “cured”, the “Median time to reach 1500 mm^3” value (Caki-1 cells) was 39 days and the “Median time for tumors to reach 1000 mm^3” value (Caki-1 cells; Compound #10 10 mg/kg QD PO, sunitinib 75 mg/kg QD PO, rapamycin 15 mg/kg PO) was 39 days. For the same compound, the “Tumor size (mean±SD)” value (Caki-1 cells; Day 35, 10 mg/kg QD) was 866±450 mm^3, the “Tumors smaller than those in vehicle-treated mice” value (Caki-1 cells; Day 35, Compound #10 10 mg/kg QD PO, sunitinib 75 mg/kg QD PO, rapamycin 15 mg/kg PO) was 44% and the “Tumor size (mean±SD)” value (Caki-1 cells; Day 52, 10 mg/kg QD) was 1538±1070 mm^3. For the same compound, the “Body weight loss from Day 0” value ([3]; Day 8 and Day 14) was 2.2%, the “Survival of treated mice” value ([3]; all mice, in words) was “survived until sacrificed” and the “Body weight change from initial body weight” value ([3]; in words) was “transiently lost weight”. The “Suppression of c-Myc expression (FIG. 7A)” value [4] was “not completely effective in suppressing c-Myc expression”, the “Effect on protein expression (FIG. 8)” value [5] was “dose-dependent and depended on the RCC line used” and the CC50 (Vero E6 cells; Dengue 2 assay line) was 700 nM. The CC50 (Vero E6 cells; Vaccinia assay line) was 83 nM, the CC50 (Vero cells) was > 1000 nM and the CC50 (MDCK cells) was > 1000 nM.
